Values of other authors as cited in paper PMC13015236 (Journal of Pharmaceutical Analysis, 2025).

Assays:
[1] = patients
[2] = test system: non-small cell lung cancer (NSCLC); details: NSCLC patients

| Substance | objective response rate (ORR) [1] [%] | objective response rate (ORR) [2] [%] |
| --- | --- | --- |
| atezolizumab | 24 | 16.2 |
| tiragolumab | 21 |  |
